Values of other authors, collected in US7320970B2, “Low dose estrogen interrupted hormone replacement therapy” (Duramed Pharmaceutials, Inc., priority 1999, dated 2008).

Assays:
[1] = biological target: T1, human sex-hormone-binding globulin (SHBG) (Homo sapiens, UniProt P04278)
T1 sequence (P04278 30-402): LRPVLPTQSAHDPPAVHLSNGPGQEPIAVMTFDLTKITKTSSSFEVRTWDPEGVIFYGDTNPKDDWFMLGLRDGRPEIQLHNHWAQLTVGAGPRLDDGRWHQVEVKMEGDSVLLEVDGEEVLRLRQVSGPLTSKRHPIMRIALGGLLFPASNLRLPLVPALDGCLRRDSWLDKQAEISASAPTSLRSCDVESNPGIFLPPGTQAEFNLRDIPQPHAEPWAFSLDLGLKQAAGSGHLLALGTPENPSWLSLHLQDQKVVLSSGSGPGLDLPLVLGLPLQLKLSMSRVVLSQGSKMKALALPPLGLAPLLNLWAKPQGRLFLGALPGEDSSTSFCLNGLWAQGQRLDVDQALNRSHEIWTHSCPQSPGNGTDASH

Q: Which “decrease in the frequency of hot flushes” value (hot flushes; dose of 20 to 80 mg/day, versus 21 percent with placebo) does the source give for CC(=O)O[C@]1(C(C)=O)CC[C@H]2[C@@H]3C=C(C)C4=CC(=O)CC[C@]4(C)[C@H]3CC[C@@]21C [megestrol acetate] here?
A: 85%

Q: With C#C[C@]1(OC(C)=O)CC[C@H]2[C@@H]3CCC4=CC(=O)CC[C@@H]4[C@H]3CC[C@@]21C [norethindrone acetate] as the compound, how does the “effectiveness against hot flushes” value (hot flushes; 10 mg daily) read?
A: effective

Q: Which “binding to progestin receptors” value (progestin receptors) does the source give for C#C[C@]1(OC(C)=O)CC[C@H]2[C@@H]3CCC4=C/C(=N/O)CC[C@@H]4[C@H]3CC[C@@]21CC [norgestimate, D-17β-acetoxy-B-ethyl-17α ethinyl-gon-4-en-3-one oxime] here?
A: binds to progestin receptors

Q: And the “affinity for SHBG” value [1]?
A: lack of affinity for SHBG
